Data reported in PubChem BioAssay AID1259407 (Chemical Carcinogenesis Research Information System (CCRIS), 2018).
Activity calls are given as the source filed them. How the calls were made is not given here.

Tested on: CCRIS mutagenicity, Ames/micronucleus/aberration tests
Assay: CCRIS mutagenicity studies
[1] = Test System: AMES SALMONELLA TYPHIMURIUM, Strain/Indicator: TA98, Metabolic Activation: NONE, Method: STANDARD PLATE
[2] = Test System: AMES SALMONELLA TYPHIMURIUM, Strain/Indicator: TA98, Metabolic Activation: RAT, LIVER, S-9, AROCLOR 1254, Method: STANDARD PLATE
[3] = Test System: AMES SALMONELLA TYPHIMURIUM, Strain/Indicator: TA100, Metabolic Activation: NONE, Method: STANDARD PLATE
[4] = Test System: AMES SALMONELLA TYPHIMURIUM, Strain/Indicator: TA100, Metabolic Activation: RAT, LIVER, S-9, AROCLOR 1254, Method: STANDARD PLATE

CCC(=O)N(O)c1ccc(Cl)c(Cl)c1
mutagenic call (Test System: AMES SALMONELLA TYPHIMURIUM, Strain/Indicator: TA97, Metabolic Activation: NONE, Method: STANDARD PLATE): inactive; negative
mutagenic call (Test System: AMES SALMONELLA TYPHIMURIUM, Strain/Indicator: TA97, Metabolic Activation: RAT, LIVER, S-9, AROCLOR 1254, Method: STANDARD PLATE): inactive; negative
mutagenic call [1]: inactive; negative
mutagenic call [2]: inactive; negative
mutagenic call [3]: inactive; negative
mutagenic call [4]: inactive; negative
mutagenic call (Test System: AMES SALMONELLA TYPHIMURIUM, Strain/Indicator: TA104, Metabolic Activation: NONE, Method: STANDARD PLATE): inactive; negative
mutagenic call (Test System: AMES SALMONELLA TYPHIMURIUM, Strain/Indicator: TA104, Metabolic Activation: RAT, LIVER, S-9, AROCLOR 1254, Method: STANDARD PLATE): inactive; negative

[Si]
mutagenic call (Test System: AMES SALMONELLA TYPHIMURIUM, Strain/Indicator: TA98, Metabolic Activation: RAT LIVER S-9, PHENOBARBITAL AND BETA-NAPHTHOFLAVONE, Method: GAS EXPOSURE): active; positive
mutagenic call (Test System: AMES SALMONELLA TYPHIMURIUM, Strain/Indicator: TA98, Metabolic Activation: RAT, LIVER, S-9, PHENOBARBITAL AND 5,6-BENZOFLAVONE, Method: GAS EXPOSURE): active; positive
mutagenic call (Test System: AMES SALMONELLA TYPHIMURIUM, Strain/Indicator: TA100, Metabolic Activation: NONE, Method: GAS EXPOSURE): inactive; negative
mutagenic call (Test System: AMES SALMONELLA TYPHIMURIUM, Strain/Indicator: TA100, Metabolic Activation: RAT LIVER S-9, PHENOBARBITAL AND BETA-NAPHTHOFLAVONE, Method: GAS EXPOSURE): inactive; negative
mutagenic call (Test System: AMES SALMONELLA TYPHIMURIUM, Strain/Indicator: TA100, Metabolic Activation: RAT, LIVER, S-9, PHENOBARBITAL AND 5,6-BENZOFLAVONE, Method: GAS EXPOSURE): inactive; negative
mutagenic call (Test System: AMES SALMONELLA TYPHIMURIUM, Strain/Indicator: TA1535, Metabolic Activation: NONE, Method: GAS EXPOSURE): inactive; negative
mutagenic call (Test System: AMES SALMONELLA TYPHIMURIUM, Strain/Indicator: TA1535, Metabolic Activation: RAT LIVER S-9, PHENOBARBITAL AND BETA-NAPHTHOFLAVONE, Method: GAS EXPOSURE): inactive; negative
mutagenic call (Test System: AMES SALMONELLA TYPHIMURIUM, Strain/Indicator: TA1535, Metabolic Activation: RAT, LIVER, S-9, PHENOBARBITAL AND 5,6-BENZOFLAVONE, Method: GAS EXPOSURE): inactive; negative
mutagenic call (Test System: AMES SALMONELLA TYPHIMURIUM, Strain/Indicator: TA1537, Metabolic Activation: RAT, LIVER, S-9, PHENOBARBITAL AND 5,6-BENZOFLAVONE, Method: GAS EXPOSURE): active; positive
mutagenic call (Test System: E. COLI, Strain/Indicator: WP2 UVRA, Metabolic Activation: NONE, Method: GAS EXPOSURE): inactive; negative
mutagenic call (Test System: E. COLI, Strain/Indicator: WP2 UVRA, Metabolic Activation: RAT, LIVER, S-9, PHENOBARBITAL AND 5,6-BENZOFLAVONE, Method: GAS EXPOSURE): inactive; negative
mutagenic call (Test System: E.COLI, Strain/Indicator: WP2UVRA, Metabolic Activation: NONE, Method: GAS EXPOSURE): inactive; negative
mutagenic call (Test System: E.COLI, Strain/Indicator: WP2UVRA, Metabolic Activation: RAT LIVER S-9, PHENOBARBITAL AND BETA-NAPHTHOFLAVONE, Method: GAS EXPOSURE): inactive; negative

C1COCO1
mutagenic call [1]: inactive; negative
mutagenic call [2]: inactive; negative
mutagenic call [3]: inactive; negative
mutagenic call [4]: inactive; negative
mutagenic call (Test System: AMES SALMONELLA TYPHIMURIUM, Strain/Indicator: TA1535, Metabolic Activation: NONE, Method: STANDARD PLATE): inactive; negative
mutagenic call (Test System: AMES SALMONELLA TYPHIMURIUM, Strain/Indicator: TA1535, Metabolic Activation: RAT, LIVER, S-9, AROCLOR 1254, Method: STANDARD PLATE): inactive; negative
mutagenic call (Test System: AMES SALMONELLA TYPHIMURIUM, Strain/Indicator: TA1537, Metabolic Activation: NONE, Method: STANDARD PLATE): inactive; negative
mutagenic call (Test System: AMES SALMONELLA TYPHIMURIUM, Strain/Indicator: TA1537, Metabolic Activation: RAT, LIVER, S-9, AROCLOR 1254, Method: STANDARD PLATE): inactive; negative
mutagenic call (Test System: AMES SALMONELLA TYPHIMURIUM, Strain/Indicator: TA1538, Metabolic Activation: NONE, Method: STANDARD PLATE): inactive; negative
mutagenic call (Test System: AMES SALMONELLA TYPHIMURIUM, Strain/Indicator: TA1538, Metabolic Activation: RAT, LIVER, S-9, AROCLOR 1254, Method: STANDARD PLATE): inactive; negative

Cn1c(N)nc2nc3cccnc3cc21
mutagenic call (Test System: AMES SALMONELLA TYPHIMURIUM, Strain/Indicator: TA98, Metabolic Activation: RAT, LIVER, S-9, AROCLOR 1254A, Method: STANDARD PLATE): inactive; negative
mutagenic call (Test System: AMES SALMONELLA TYPHIMURIUM, Strain/Indicator: YG1024, Metabolic Activation: RAT, LIVER, S-9, AROCLOR 1254A, Method: STANDARD PLATE): active; positive

CC(C)[C@](O)(C(=O)O)[C@@H](C)O
mutagenic call (Test System: AMES SALMONELLA TYPHIMURIUM, Strain/Indicator: TA100, Metabolic Activation: HAMSTER, LIVER, S-9, PCB, Method: PREINCUBATION): inactive; negative
mutagenic call (Test System: AMES SALMONELLA TYPHIMURIUM, Strain/Indicator: TA100, Metabolic Activation: RAT, LIVER, S-9, PCB, Method: PREINCUBATION): inactive; negative
